Series [1] concerns cultured lymphoid leukemia L1210 cells. Conditions: data from Tong et al. 1976, read-out: Inhibition of Synthesis of RNA, ED50; cited from earlier work.
Series [2] shares this test system. To be noted: data from Tong et al. 1976, read-out: Inhibition of Synthesis of DNA, ED50; cited from earlier work.
Series [3] concerns lymphocytic leukemia P388 implanted in mice. To be noted: cited from earlier work.
The test system of series [4] is isolated helical DNA. Conditions: cited from earlier work.
The subject of series [5] is cultured lymphoid leukemia L1210 cells. To be noted: cited from earlier work.
Series [6] deals with lymphocytic leukemia P388 implanted in mice. In words: antitumor efficacy vs P388 leukemia in mice (increased survival time). It is filed as in vivo. Conditions: for antitumor activity in mouse tests: NCI criteria, doses of 0.5-1.0 mg/kg; for Optimum Antitumor Efficacy, T/C / Optimum Antitumor Dose: P388 leukemia in mice; for Optimum Antitumor Efficacy, T/C: at optimum dose (septacidin 0.50, compounds 2 and 3 1.0 mg/kg), compounds 2 and 3 average from two tests; for Optimum Antitumor Dose: dose producing the highest T/C. The procedure:
(§1) The septacidin analogs 2 and 3 (corresponding to the compounds of Examples I and II, respectively) were tested first in cultured lymphoid leukemia L1210 cells for inhibition of nucleic acid syntheses and for cytotoxicity,by previously reported procedures. A sample of natural septacidin (compound 1) was obtained from the National Cancer Institute and included for comparison. Data on adriamycin (compound 4) are also included. The analogs were then tested, along with 1 and 4, against lymphocytic leukemia P388 implanted in mice, under the auspices of the NCI and according to its protocols which use the increased survival time of treated animals compared to controls as the measure of antitumor efficacy.
^c Assay described in R. I. Geran, N. H. Greenberg, M. M. MacDonald,
A. M. Schumacker and B. J. Abbott, Cancer Chemother. Rep., Part 3, 3 (No.
2), 9 (1972). Protocol 1.200. Other doses were higher or lower by a facto
of 2. Each compound has 2-4 active doses. Compounds were of borderline
solubility, and some doses were injection as suspensions. Water, water +
Tween 80, or saline + Tween 80 (emul. agent, ICI) were used as vehicles.
By definition, a compound is active if T/C […] 125. For compounds 2
and 3 the T/C is the average from two tests. Optimum dose is the one
producing the highest T/C.

Series [7] relates to cultured lymphoid leukemia L1210 cells. In words: inhibition of RNA synthesis in cultured L1210 leukemia cells. It is filed as cell-based. On the procedure: as §1
(§2) ^b Assay described in G. Tong, W. W. Lee, D. R. Black and D. W. Henry

The test system is the same in series [8]. In words: cytotoxicity vs cultured L1210 leukemia cells. It is filed as cell-based. Conditions: for IC50: cultured L1210 leukemia cells, read-out: Cytotoxicity I50. On the procedure:
as §1, §2

Series [9] shares this test system. Briefly: inhibition of DNA synthesis in cultured L1210 leukemia cells. It is filed as cell-based. The procedure:
as §1, §2

The nature of series [10]: antitumor activity (test not specified).
Series [11] deals with isolated helical DNA. In words: binding to isolated helical DNA in solution (effect on helix-coil transition temperature).
Excerpt: The in vivo efficacy of adriamycin is much higher, but there are other differences.
as §2
by the modified procedure.

Another series can be described thus: solubility. The class given is physicochemical.
The subject of series [12] is cultured lymphoid leukemia L1210 cells. Briefly: in vitro activity in cultured L1210 cells (inhibition of nucleic acid syntheses). The class given is cell-based. The procedure:
as §1, §2

[13] abbreviates: Mus musculus, cultured L1210 leukemia cells, read-out: Inhibition of Synthesis of RNA, ED50.
The mark [14] stands for this setting: in vitro, compared with septacidin (1).
The mark [15] stands for this setting: Mus musculus, cultured L1210 leukemia cells, read-out: Inhibition of Synthesis of DNA, ED50.

The structures appear in SMILES notation. “Also recorded” adds a separate entry of the source. Like-named read-outs stand apart in the source and are kept apart here.

Take `COc1cccc2c1C(=O)c1c(O)c3c(c(O)c1C2=O)C[C@@](O)(C(=O)CO)C[C@@H]3O[C@H]1C[C@H](N)[C@H](O)[C@H](C)O1` [Adriamycin]: the IC50 in [1] is 670 nM; in series [2], 1500 nM; in series [5] (cultured L1210 leukemia cells, data from Tong et al. 1976, read-out: Cytotoxicity I50) it was 32 nM. The “Optimum Antitumor Efficacy, T/C” value in [3] (P388 leukemia in mice, at 1.0 mg/kg, qd 1-9, data from Tong et al. 1976) is given as 193%. Further, the “Optimum Antitumor Dose” value in series [3] (P388 leukemia in mice, qd 1-9, data from Tong et al. 1976) was 1.0 mg/kg. In series [3] (adriamycin compared with 2), the “in vivo efficacy” value is reported as “much higher”. Further, the “Binding to Isolated Helical DNA in Solution, ΔTm” value with isolated helical DNA [4] (modified procedure, data from Tong et al. 1976) is 13.6 °C. Besides, the “binding to isolated helical DNA in solution” value in the series with isolated helical DNA [4] (ΔTm) is “binds strongly”. The “cytotoxicity” value in series [5] is on record as “highly cytotoxic”.

On to `CC(C)CCCCCCCCCCCCC(=O)NCC(=O)NC1C(O)C(O)C(Nc2ncnc3nc[nH]c23)OC1C(O)CO` (stereo not drawn) [Septacidin], for which the “Optimum Antitumor Dose, corrected for purity” value in series [6] (P388 in mice, qd 1-9, corrected for 75% purity, assuming inactive impurities) is 0.38 mg/kg. Also, in series [6] (P388 in mice), the “antitumor activity in mouse tests” value is “high antitumor potency”. Also, the “Optimum Antitumor Efficacy, T/C” value in series [6] (qd 1-9) is 154%. Further, in [6] (qd 1-9), the “Optimum Antitumor Dose” value is reported as 0.50 mg/kg. The IC50 is 530 nM in series [7] (cultured L1210 cells, corrected for 75% purity, assuming inactive impurities, read-out: Inhibition of Synthesis of RNA, ED50, corrected for purity); 700 nM in series [7] (cultured L1210 leukemia cells, read-out: Inhibition of Synthesis of RNA, ED50); > 5000 nM in series [8]; 230 nM in series [9] (cultured L1210 cells, corrected for 75% purity, assuming inactive impurities, read-out: Inhibition of Synthesis of DNA, ED50, corrected for purity); 300 nM in series [9] (cultured L1210 leukemia cells, read-out: Inhibition of Synthesis of DNA, ED50).

On to `CC(C)CCCCCCCCCCCCC(=O)NCC(=O)NC1C(C)OC(Nc2ncnc3[nH]cnc23)C(O)C1O` [Compound 2, 6-[4,6-Dideoxy-4-(isopalmitoylglycyl)amino-β-L-glucopyranosylamino]-9H-purine], for which the “antitumor activity in mouse tests” value in series [6] (P388 in mice) is “confirmed activity”. In series [6] (qd 1-9), the “Optimum Antitumor Efficacy, T/C” value is listed as 160% and the “Optimum Antitumor Dose” value is listed as 1.0 mg/kg. Further, in series [10], the “antitumor activity” value is on record as “enhanced antitumor activity”. For the same molecule, the “potency compared with adriamycin” value in series [10] (comparison of both in vivo and in vitro data) is on record as “comparable in potency”. The IC50 in series [7] (setting [13]) is 880 nM. In addition, the “response in the RNA test” value in [7] (setting [14]) was “a response nearly the same as 1”. The IC50 in series [8] (Mus musculus) was > 20000 nM. For the same molecule, the “cytotoxic effects” value in series [8] (at soluble levels) is “could not be observed at soluble levels”. Besides, the “Binding to Isolated Helical DNA in Solution, ΔTm” value in the series on isolated helical DNA [11] is 0.6 °C. Further, the “binding to isolated helical DNA in solution” value with isolated helical DNA [11] (ΔTm) is “binds only weakly”. Moreover, in series [9] (setting [15]), the IC50 turned out to be 2600 nM. The “potency in the DNA test” value in [9] (setting [14]) is listed as “not as potent”. Besides, in “solubility”, the “solubility in CH3OH” value was “moderately soluble” and the “solubility in H2O or saline” value is recorded as “slightly soluble”. Further, in [12], the “inhibition of nucleic acid synthesis” value was “potent inhibition of nucleic acid synthesis”.

`CCCCCC(=O)NCC(=O)NC1C(C)OC(Nc2ncnc3[nH]cnc23)C(O)C1O` [Example VI, 6-[4,6-Didoexy-4-(caproylglycyl)amino-β-L-glucopyranosylamino]-9H-purine]: the “antitumor activity” value in series [10] is “inactive; also recorded: loss of activity was total”.

For `CCCCCCCCCCCC(=O)NCC(=O)N[C@@H]1[C@@H](O)[C@H](O)[C@@H](Nc2ncnc3[nH]cnc23)O[C@H]1C` [Compound 3, 6-[4,6-Dideoxy-4-(lauroylglycyl)amino-β-L-glucopyranosylamino]-9H-purine], the “antitumor activity in mouse tests” value in [6] (P388 in mice) was “confirmed activity”. In addition, the “Optimum Antitumor Efficacy, T/C” value in series [6] (qd 1-9) is reported as 137%. In series [6] (qd 1-9), the “Optimum Antitumor Dose” value was determined as 1.0 mg/kg. Besides, the “efficacy in vivo” value in series [6] (fatty acid shortened from 16 to 12 carbons, compared with 2) was “slight loss of efficacy in vivo”. Further, the figures for the IC50 in series [7] (setting [13]), in series [8] (Mus musculus) and in series [9] (setting [15]) were 18000 nM, > 10000 nM and 29000 nM, respectively. For the same molecule, in the series “solubility”, the “solubility in CH3OH” value was “moderately soluble”. Besides, the “solubility in H2O or saline” value in the series “solubility” is “slightly soluble”. The “in vitro activity” value in series [12] (compared with septacidin (1) or analog 2) is reported as “noticeably less potent; also recorded: decreased activity in vitro”.

These data come from US4086416A, “Septacidin analogs” (Stanford Research Institute, priority 1977, dated 1978).
